Experimental data from US20230405134A1, “NOVEL PROTAC CHIMERIC COMPOUND, AND PHARMACEUTICAL COMPOSITION COMPRISING SAME FOR PREVENTING, AMELIORATING, OR TREATING DISEASES THROUGH TARGET PROTEIN DEGRADATION” (POSTECH RESEARCH AND BUSINESS DEVELOPMENT FOUNDATION, priority 2020, published 2023).
Where a SMILES comes first, the peptide text is derived from it. Bridges are numbered along the chain shown (N, C = ends). [ ]: non-standard residue; d: D form. Cha = N[C@@H](CC1CCCCC1)C(=O)O; S5 = C=CCCC[C@](C)(N)C(=O)O

Tests used:
[1] = system: E-cadherin; assay: E-cadherin mRNA level by RT-qPCR in MDA-MB-231 cells; format: cell-based, human; conditions: 12 hours
Source text: (§1) The pharmacological effects on SRC-1 dependent signal transmission were explored using the previously discovered SRC-1 degrading substance. The SRC-1 is overexpressed in various cancers and plays a pivotal role in increasing cell migration and invasion by regulating the expression of related genes. Therefore, when treated with ND1-YL2, an SRC-1 degrading substance, the expression of genes stimulated by SRC-1, such as colony stimulating factor-1 (CSF-1), a gene encoding the cytokine CSF-1 that induces cell differentiation and migration, will be suppressed. To confirm this, MDA-MB-231 cells were treated with DMSO and various concentrations of ND1-YL2, YL2 or N-degron tetrapeptide for 12 hours, and the mRNA level of CSF-1 was normalized to 18S level. Confirmation was made using quantitative real-time polymerase chain reaction (RT-qPCR). MDA-MB-231 cells were seeded at 2×10^5 cells per well. After 24 hours, compounds (YL2, RLAA or ND1-YL2) were treated in Opti-MEM medium for 12 hours. Subsequently, general mRNA isolation was performed using TRI reagent (Takara), and total mRNA was isolated from the cells. The absorbance of total mRNA was measured with a Tecan F200 Nanophotometer, and reverse transcription was performed using AccuPower RocketScript Cycle RT PreMix (Bioneer). Quantitative real-time PCR for CSF-1, E-Cadherin and 18S was performed using a StepOnePlus Real-Time PCR System and SYBR Green mix (Applied Biosystems) according to the manufacturer's manual.
In addition, the effect of the ND1-YL2 on the expression of E-cadherin, a tumor suppressor gene that plays an important role in cell-cell adhesion, was tested. Since SRC-1 protein is known to suppress the E-cadherin expression, the ND1-YL2 will upregulate the E-cadherin by degrading SRC-1.

[2] = system: CSF-1; assay: CSF-1 mRNA level by RT-qPCR in MDA-MB-231 cells; format: cell-based, human; conditions: 12 hours
Source text: as §1

CC(C)C[C@H](NC(=O)[C@H](C)NC(=O)[C@H](C)NC(=O)[C@H](C)NC(=O)[C@H](C)NC(=O)[C@H](CC(C)C)NC(=O)[C@@H](N)CCCNC(=N)N)C(=O)N[C@@H](CC(C)C)C(=O)N1CCC[C@H]1C(=O)N1CCC[C@H]1C(=O)N[C@H](C(=O)N[C@@H](CCC(=O)O)C(=O)N[C@@H](CCC(N)=O)C(=O)N[C@@H](CC(=O)O)C(=O)N[C@@H](CC(C)C)C(=O)N[C@@]1(C)CCC/C=C\CCC[C@@](C)(C(=O)N[C@@H](Cc2ccc(O)cc2)C(N)=O)NC(=O)[C@H](CC2CCCCC2)NC(=O)[C@H](CC(C)C)NC(=O)[C@H](CCCCN)NC1=O)[C@@H](C)O [ND1-YL2] (H-RLAAAALLPPTEQDL[S5]KL[Cha][S5]Y-NH2; staple (Z) 16-20)
Effect on E-cadherin expression (mRNA) [1]: dose-dependent increase | Effect on CSF-1 expression (mRNA normalized to 18S) [2]: downregulated CSF-1 expression
